In ChEMBL document CHEMBL1141561, “A new series of neutral 5-substituted 4-anilinoquinazolines as potent, orally active inhibitors of erbB2 receptor tyrosine kinase” (Bioorg Med Chem Lett, 2008):
Values after ≈ are worked out from the molar mass of the structure shown. Blank lines part the entries; values can stand above or below the compound they belong to.

Columns and labels:
[1] = biological target: T1, Receptor tyrosine-protein kinase erbB-2 (Homo sapiens, UniProt P04626); test: Inhibition of ebrB2 expressed in human MCF7 cells by autophosphorylation assay; assay type: cell-based
Mus musculus [2] = species: Mus musculus; test: animal or person; settings: BT474c, po, 1 h, read-out: Inhibition
[3] = biological target: Epidermal growth factor receptor (Homo sapiens, UniProt P00533)
[4] = Bioavailability in Han Wistar rat at 2 mg/kg, iv and 5 mg/kg, po; assay type: ADME, organism-based; settings: in vivo
[5] = Volume of distribution at steady state in Han Wistar rat at 2 mg/kg, iv and 5 mg/kg, po; assay type: ADME, organism-based; settings: in vivo, read-out: Vdss
[6] = Volume of distribution at steady state in Beagle dog at 1 mg/kg, iv and 2 mg/kg, po; assay type: ADME, organism-based, Canis lupus familiaris; settings: in vivo, read-out: Vdss
Canis familiaris [7] = test: Clearance in Beagle dog assessed as hepatic blood flow at 1 mg/kg, iv and 2 mg/kg, po; assay type: ADME, organism-based, Canis lupus familiaris, Liver; settings: in vivo
[8] = biological target: Voltage-gated inwardly rectifying potassium channel KCNH2 (Homo sapiens, UniProt Q12809)
[9] = Bioavailability in Beagle dog at 1 mg/kg, iv and 2 mg/kg, po; assay type: ADME, organism-based, Canis lupus familiaris; settings: in vivo
[10] = Partition coefficient, log D at pH 7.4; assay type: physicochemical; settings: octanol/water
[11] = Solubility in aqueous phosphate buffer at pH 7.4 after 24 hrs; assay type: physicochemical
[12] = Fraction unbound ligand in Han Wistar rat plasma protein; assay type: ADME, cell-free
KB = test: cells; settings: Homo sapiens
Rattus norvegicus [13] = test: Clearance in Han Wistar rat assessed as hepatic blood flow at 2 mg/kg, iv and 5 mg/kg, po; assay type: ADME, organism-based, Liver; settings: in vivo
Mus musculus [14] = species: Mus musculus; test: animal or person; settings: BT474c, po, 8 h, read-out: Inhibition
[15] = Fraction unbound ligand in Beagle dog at 0.2 mg/kg, iv and 0.4 mg/kg, po; assay type: ADME, organism-based, Canis lupus familiaris; settings: in vivo
[16] = Fraction unbound ligand in mouse plasma protein; assay type: ADME, cell-free
cells = settings: Homo sapiens, BT474c
[17] = biological target: T1, Receptor tyrosine-protein kinase erbB-2; test: Inhibition of ebrB2
Rattus norvegicus [18] = test: Clearance in Han Wistar rat assessed as hepatic blood flow at 0.4 mg/kg, iv and 1 mg/kg, po; assay type: ADME, organism-based, Liver; settings: in vivo
[19] = Bioavailability in Beagle dog at 0.2 mg/kg, iv and 0.4 mg/kg, po; assay type: ADME, organism-based, Canis lupus familiaris; settings: in vivo
[20] = Volume of distribution at steady state in Han Wistar rat at 0.4 mg/kg, iv and 1 mg/kg, po; assay type: ADME, organism-based; settings: in vivo, read-out: Vdss
[21] = Volume of distribution at steady state in Beagle dog at 0.2 mg/kg, iv and 0.4 mg/kg, po; assay type: ADME, organism-based, Canis lupus familiaris; settings: in vivo, read-out: Vdss
[22] = Bioavailability in Han Wistar rat at 0.4 mg/kg, iv and 1 mg/kg, po; assay type: ADME, organism-based; settings: in vivo
Canis familiaris [23] = test: Clearance in Beagle dog assessed as hepatic blood flow at 0.2 mg/kg, iv and 0.4 mg/kg, po; assay type: ADME, organism-based, Canis lupus familiaris, Liver; settings: in vivo
Mus musculus [24] = species: Mus musculus; test: animal or person; settings: BT474c, po, 8 h, read-out: Inhibition; remark: listed apart in the source
Mus musculus [25] = species: Mus musculus; test: animal or person; settings: BT474c, po, 1 h, read-out: Inhibition; remark: listed apart in the source
[26] = Dissociation constant, pKa of the compound; assay type: physicochemical

Voltage-gated inwardly rectifying potassium channel KCNH2, sequence (Q12809 whole entry): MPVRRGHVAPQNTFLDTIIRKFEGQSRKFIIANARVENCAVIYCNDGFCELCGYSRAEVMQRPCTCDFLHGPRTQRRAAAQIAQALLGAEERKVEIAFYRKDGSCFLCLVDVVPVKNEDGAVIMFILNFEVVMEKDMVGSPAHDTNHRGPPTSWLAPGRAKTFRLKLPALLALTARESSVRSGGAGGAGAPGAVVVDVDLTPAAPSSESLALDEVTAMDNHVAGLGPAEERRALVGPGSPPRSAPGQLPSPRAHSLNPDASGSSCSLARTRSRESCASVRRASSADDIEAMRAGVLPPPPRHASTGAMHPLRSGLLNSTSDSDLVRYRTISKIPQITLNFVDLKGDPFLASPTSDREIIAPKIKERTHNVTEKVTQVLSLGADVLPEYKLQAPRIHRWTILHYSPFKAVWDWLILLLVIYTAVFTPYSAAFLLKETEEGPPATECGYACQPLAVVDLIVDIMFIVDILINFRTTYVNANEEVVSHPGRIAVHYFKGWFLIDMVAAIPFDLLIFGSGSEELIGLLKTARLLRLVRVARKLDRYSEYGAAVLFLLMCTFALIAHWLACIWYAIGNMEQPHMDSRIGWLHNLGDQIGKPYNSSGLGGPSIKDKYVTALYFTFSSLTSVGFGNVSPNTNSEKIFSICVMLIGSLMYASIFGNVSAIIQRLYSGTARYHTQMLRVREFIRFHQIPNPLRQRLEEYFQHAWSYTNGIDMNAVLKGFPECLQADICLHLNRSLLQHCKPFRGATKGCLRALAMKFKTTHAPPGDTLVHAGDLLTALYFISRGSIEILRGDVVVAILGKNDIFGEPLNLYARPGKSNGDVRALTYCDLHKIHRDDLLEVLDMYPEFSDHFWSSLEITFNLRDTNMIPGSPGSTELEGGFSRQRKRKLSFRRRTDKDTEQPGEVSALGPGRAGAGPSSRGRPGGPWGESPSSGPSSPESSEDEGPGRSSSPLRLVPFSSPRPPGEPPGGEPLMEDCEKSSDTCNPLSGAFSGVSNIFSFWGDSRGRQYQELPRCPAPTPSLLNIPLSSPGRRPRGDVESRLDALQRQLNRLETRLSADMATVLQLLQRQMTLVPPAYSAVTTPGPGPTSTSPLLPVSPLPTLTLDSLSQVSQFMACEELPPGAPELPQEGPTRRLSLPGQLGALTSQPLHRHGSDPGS
Epidermal growth factor receptor, sequence (P00533 whole entry): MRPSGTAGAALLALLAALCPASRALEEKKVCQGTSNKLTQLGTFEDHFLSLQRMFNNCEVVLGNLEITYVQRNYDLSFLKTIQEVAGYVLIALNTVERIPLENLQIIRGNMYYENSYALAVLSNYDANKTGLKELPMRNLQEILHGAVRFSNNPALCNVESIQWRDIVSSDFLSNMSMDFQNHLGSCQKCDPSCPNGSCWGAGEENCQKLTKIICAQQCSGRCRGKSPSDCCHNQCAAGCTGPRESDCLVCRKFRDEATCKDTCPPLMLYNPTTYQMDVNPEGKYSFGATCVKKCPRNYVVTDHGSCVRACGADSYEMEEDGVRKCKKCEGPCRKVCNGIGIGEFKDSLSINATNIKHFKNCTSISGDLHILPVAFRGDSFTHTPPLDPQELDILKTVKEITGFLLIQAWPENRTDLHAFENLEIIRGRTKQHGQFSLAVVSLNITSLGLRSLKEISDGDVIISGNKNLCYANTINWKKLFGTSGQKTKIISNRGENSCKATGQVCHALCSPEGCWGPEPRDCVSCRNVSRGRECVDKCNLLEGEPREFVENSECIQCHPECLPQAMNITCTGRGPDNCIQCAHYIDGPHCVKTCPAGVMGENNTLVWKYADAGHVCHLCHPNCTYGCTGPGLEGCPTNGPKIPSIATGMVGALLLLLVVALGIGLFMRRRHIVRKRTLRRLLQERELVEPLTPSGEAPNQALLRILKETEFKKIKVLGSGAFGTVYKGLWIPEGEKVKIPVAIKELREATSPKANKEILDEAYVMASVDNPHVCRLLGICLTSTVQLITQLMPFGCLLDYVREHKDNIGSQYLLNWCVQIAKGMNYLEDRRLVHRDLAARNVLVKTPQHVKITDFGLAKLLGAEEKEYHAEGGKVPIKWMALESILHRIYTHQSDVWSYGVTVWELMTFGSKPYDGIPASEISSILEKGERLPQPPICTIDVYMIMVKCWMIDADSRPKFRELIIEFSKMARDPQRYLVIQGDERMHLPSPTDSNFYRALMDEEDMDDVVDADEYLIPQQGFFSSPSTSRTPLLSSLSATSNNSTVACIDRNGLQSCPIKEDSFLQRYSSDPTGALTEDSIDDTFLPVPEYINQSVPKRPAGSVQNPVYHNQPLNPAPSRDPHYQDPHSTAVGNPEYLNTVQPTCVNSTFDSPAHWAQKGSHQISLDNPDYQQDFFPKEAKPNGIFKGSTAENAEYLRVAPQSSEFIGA
T1 sequence (P04626 whole entry): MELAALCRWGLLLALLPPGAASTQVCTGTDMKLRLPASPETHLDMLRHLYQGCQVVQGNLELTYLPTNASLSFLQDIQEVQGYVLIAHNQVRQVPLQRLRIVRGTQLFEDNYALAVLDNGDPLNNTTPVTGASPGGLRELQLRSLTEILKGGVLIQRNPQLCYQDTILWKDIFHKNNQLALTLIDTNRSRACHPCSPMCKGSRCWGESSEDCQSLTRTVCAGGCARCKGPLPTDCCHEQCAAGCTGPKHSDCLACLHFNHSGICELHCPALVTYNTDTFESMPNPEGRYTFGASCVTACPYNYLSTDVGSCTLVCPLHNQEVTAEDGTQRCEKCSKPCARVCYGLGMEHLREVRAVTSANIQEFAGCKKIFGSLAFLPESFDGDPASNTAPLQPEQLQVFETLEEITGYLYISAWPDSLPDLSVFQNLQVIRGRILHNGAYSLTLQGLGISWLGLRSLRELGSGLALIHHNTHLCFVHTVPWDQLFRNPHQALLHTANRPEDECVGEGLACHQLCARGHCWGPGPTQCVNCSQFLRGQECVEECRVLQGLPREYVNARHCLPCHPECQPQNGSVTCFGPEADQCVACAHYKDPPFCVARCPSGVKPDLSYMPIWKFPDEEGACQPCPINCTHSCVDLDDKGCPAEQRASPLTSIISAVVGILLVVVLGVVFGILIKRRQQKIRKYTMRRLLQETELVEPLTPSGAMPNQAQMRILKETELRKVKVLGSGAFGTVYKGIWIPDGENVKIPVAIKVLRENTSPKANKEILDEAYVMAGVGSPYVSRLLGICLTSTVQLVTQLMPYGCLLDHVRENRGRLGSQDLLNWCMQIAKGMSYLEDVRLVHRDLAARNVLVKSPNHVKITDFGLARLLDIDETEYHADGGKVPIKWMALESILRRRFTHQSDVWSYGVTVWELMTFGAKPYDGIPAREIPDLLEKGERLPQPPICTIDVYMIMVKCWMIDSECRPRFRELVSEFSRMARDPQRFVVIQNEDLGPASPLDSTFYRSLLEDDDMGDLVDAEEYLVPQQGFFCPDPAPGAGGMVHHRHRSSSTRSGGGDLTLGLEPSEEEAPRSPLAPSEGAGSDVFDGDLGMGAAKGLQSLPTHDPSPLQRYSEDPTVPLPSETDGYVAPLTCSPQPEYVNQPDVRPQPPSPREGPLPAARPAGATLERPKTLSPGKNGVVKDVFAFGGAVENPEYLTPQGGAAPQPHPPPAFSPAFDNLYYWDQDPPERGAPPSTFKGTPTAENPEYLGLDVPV

Compound: CN1CCN(C(=O)COc2cccc3ncnc(Nc4ccc(OCc5ccccn5)c(Cl)c4)c23)CC1
IC50 [1]: 350 nM

Compound: NC(=O)COc1cccc2ncnc(Nc3ccc(OCc4ccccn4)c(Cl)c3)c12
IC50 [1]: 180 nM

Compound: Cc1ccc(Oc2ccc(Nc3ncnc4cccc(OCC(=O)N(C)CCO)c34)cc2C)cn1
IC50 [1]: 130 nM

Compound: Cc1ccc(Oc2ccc(Nc3ncnc4cccc(O[C@H](C)C(=O)N(C)C)c34)cc2C)cn1
inhibition in vivo at 100 mg/kg (Mus musculus [2]): 37%
IC50 [3]: 1100 nM
bioavailability [4]: 67%
Vd [5]: 0.9 L/kg
Vd [6]: 1.8 L/kg
%hepatic blood flow (Canis familiaris [7]): 48%
IC50 [8]: 8000 nM
bioavailability [9]: 47%
logD [10]: > 4.3
solubility at 24 h [11]: 28 µM (≈ 12.8 µg/mL)
fraction unbound [12]: 0.017
IC50 (KB): 2700 nM
%hepatic blood flow (Rattus norvegicus [13]): 12%
inhibition in vivo at 100 mg/kg (Mus musculus [14]): 55%
fraction unbound [15]: 0.025
fraction unbound [16]: 0.011

Compound: C[C@H](Oc1cccc2ncnc(Nc3ccc(OCc4ccccn4)c(Cl)c3)c12)C(=O)N(C)CCO
IC50 [1]: 79 nM

Compound: Cc1ccc(Oc2ccc(Nc3ncnc4cccc(O[C@@H](C)C(=O)N(C)C)c34)cc2C)cn1
IC50 [8]: 11000 nM

Compound: Cc1ccc(Oc2ccc(Nc3ncnc4cccc(O[C@H](C)C(=O)NCCO)c34)cc2C)cn1
IC50 [1]: 200 nM

Compound: O=C(COc1cccc2ncnc(Nc3ccc(OCc4ccccn4)c(Cl)c3)c12)N1CCOCC1
IC50 [1]: 140 nM

Compound: CN1CCC(Oc2cccc3ncnc(Nc4ccc(OCc5ccccn5)c(Cl)c4)c23)CC1
pKa [26]: 8.1
IC50 [8]: 5000 nM

Compound: COCCN(C)C(=O)[C@@H](C)Oc1cccc2ncnc(Nc3ccc(Oc4ccc(C)nc4)c(C)c3)c12
IC50 [1]: 120 nM

Compound: CN(CCO)C(=O)COc1cccc2ncnc(Nc3ccc(OCc4ccccn4)c(Cl)c3)c12
IC50 [1]: 120 nM

Continued by falling IC50 [1], values first:

IC50 [1]: 78 nM
Compound: Cc1ccc(Oc2ccc(Nc3ncnc4cccc(O[C@@H](C)C(=O)N(C)CCO)c34)cc2C)cn1

IC50 [3]: 2000 nM
bioavailability [4]: 34%
IC50 (cells): 270 nM
IC50 [17]: 2 nM
Vd [5]: 1 L/kg
logD [10]: 3.8
IC50 [1]: 69 nM
solubility at 24 h [11]: 66 µM (≈ 32.2 µg/mL)
bioavailability [19]: 33%
Vd [21]: 0.9 L/kg
fraction unbound [12]: 0.029
IC50 (KB): 23000 nM
%hepatic blood flow (Rattus norvegicus [13]): 23%
%hepatic blood flow (Canis familiaris [23]): 34%
fraction unbound [15]: 0.038
fraction unbound [16]: 0.025
Compound: Cc1ccc(Oc2ccc(Nc3ncnc4cccc(O[C@H](C)C(=O)N(C)CCO)c34)cc2C)cn1
inhibition in vivo at 100 mg/kg (Mus musculus [24]): 36%
inhibition in vivo at 100 mg/kg (Mus musculus [25]): 78%

IC50 [1]: 66 nM
Compound: CNC(=O)[C@@H](C)Oc1cccc2ncnc(Nc3ccc(OCc4ccccn4)c(Cl)c3)c12
IC50 [8]: 32000 nM

IC50 [1]: 43 nM
Compound: C[C@H](Oc1cccc2ncnc(Nc3ccc(OCc4ccccn4)c(Cl)c3)c12)C(=O)N(C)C
IC50 [8]: 10000 nM

IC50 [1]: 35 nM
Compound: Cc1ccc(Oc2ccc(Nc3ncnc4cccc(O[C@@H](C)C(=O)N5CCOCC5)c34)cc2C)cn1

IC50 [3]: 22 nM
IC50 (cells): 100 nM
IC50 [17]: < 1 nM
%hepatic blood flow (Rattus norvegicus [18]): 4.3%
logD [10]: 3.7
IC50 [1]: 34 nM
solubility at 24 h [11]: 6 µM (≈ 2.87 µg/mL)
bioavailability [19]: 89%
Vd [20]: 0.5 L/kg
Vd [21]: 1 L/kg
fraction unbound [12]: 0.004
IC50 (KB): 1000 nM
bioavailability [22]: 75%
%hepatic blood flow (Canis familiaris [23]): 24%
fraction unbound [15]: 0.011
Compound: C[C@@H](Oc1cccc2ncnc(Nc3ccc(OCc4ccccn4)c(Cl)c3)c12)C(=O)N(C)C
IC50 [8]: 14000 nM

IC50 [1]: 31 nM
Compound: C[C@@H](Oc1cccc2ncnc(Nc3ccc(OCc4ccccn4)c(Cl)c3)c12)C(=O)N(C)CCO

IC50 [1]: 27 nM
Compound: Cc1ccc(Oc2ccc(Nc3ncnc4cccc(O[C@H](C)C(=O)N5CCOCC5)c34)cc2Cl)cn1

IC50 [1]: 23 nM
Compound: COc1cc(Nc2ncnc3cccc(O[C@H](C)C(=O)N4CCOCC4)c23)ccc1Oc1ccc(C)nc1

IC50 [1]: 22 nM
Compound: Cc1ccc(Oc2ccc(Nc3ncnc4cccc(O[C@H](C)C(=O)N5CCOCC5)c34)cc2C)cn1

IC50 [1]: 19 nM
Compound: C[C@@H](Oc1cccc2ncnc(Nc3ccc(OCc4ccccn4)c(Cl)c3)c12)C(=O)N1CCOCC1
IC50 [8]: 10000 nM
